This note sets out measurements from patent publication US4735949A, “Disubstituted-7-pyrrolidinonaphthyridine antibacterial agents” (Warner-Lambert Company, priority 1987, dated 1988).

Holding throughout (assay): in vitro antibacterial activity, microtitration dilution method
Common to all, as to assay type: cell-based

The subject of test [1] is Enterobacter cloacae MA 2646. From the text: (§1) Agents & Chemoth., 6, 124 (1974), which is incorporated herein by reference.
Test [2] deals with Escherichia coli Vogel. The settings on record: read-out: Minimal Inhibitory Concentration MIC.
Text: as §1

For test [3], the system named is Klebsiella pneumoniae MGH-2.
Text: as §1

Test [4] deals with Proteus rettgeri M 1771. The following applies: Providencia rettgeri.
Text: as §1

Test [5] has as its system Pseudomonas aeruginosa UI-18. The following applies: UI18; Pseudomonas aeruginosa UI-18, in vitro; read-out: Minimal Inhibitory Concentration MIC.
Text: as §1

Test [6] relates to Staphylococcus aureus H 228. The following applies: H228; Staphylococcus aureus H 228, in vitro; read-out: Minimal Inhibitory Concentration MIC. From the text: (§2) The compounds of the invention display antibacterial activity when tested by the microtitration dilution method as described in Heifetz, et al, Antimicr. Agents & Chemoth., 6, 124 (1974), which is incorporated herein by reference.
(§3) By use of the above referenced method, the following minimum inhibitory concentration values (MICs in μg/ml) were obtained for representative compounds of the invention.

In test [7] the test system is Staphylococcus aureus UC-76. The settings on record: UC76; Staphylococcus aureus UC-76, in vitro; read-out: Minimal Inhibitory Concentration MIC.
Text: as §2, §3

Test [8] has as its system Streptococcus faecalis MGH-2. The settings on record: Enterococcus faecalis, MGH2; Streptococcus faecalis MGH-2, in vitro; read-out: Minimal Inhibitory Concentration MIC.
Text: as §2, §3

Test [9] has as its system Streptococcus pneumoniae SV-1. The settings on record: SV1; Streptococcus pneumoniae SV-1, in vitro; read-out: Minimal Inhibitory Concentration MIC.
Text: as §2, §3

In test [10] the test system is Streptococcus pyogenes C-203. The following applies: C203; Streptococcus pyogenes C-203, in vitro; read-out: Minimal Inhibitory Concentration MIC.
Text: as §2, §3

[11] abbreviates: MA2646, Enterobacter cloacae MA 2646, in vitro, read-out: Minimal Inhibitory Concentration MIC.
The mark [12] stands for this setting: M1771, Proteus rettgeri M 1771, in vitro, read-out: Minimal Inhibitory Concentration MIC.
The mark [13] stands for this setting: Klebsiella pneumoniae, MGH2, read-out: Minimal Inhibitory Concentration MIC.
Where [14] appears, read: M1771, read-out: Minimal Inhibitory Concentration MIC.

Values after ≈ are worked out from the molar mass of the structure shown. Read-outs that look alike come from different tables or passages of the source.

`NC1CN(c2c(F)cc3c(=O)c(C(=O)O)cn(C4CC4)c3c2F)CC1c1ccccc1` (centres unmarked) [Example 3, 7-[(3-Amino-4-phenyl)-1-pyrrolidinyl]-1-cyclopropyl-6,8-difluoro-1,4-dihydro-4-oxo-3-quinolinecarboxylic acid]: the MIC in test [1] (setting [11]) is 0.2 µg/mL (≈ 0.47 µM); in [2], 0.1 µg/mL (≈ 0.235 µM); in [3] (MGH2, Klebsiella pneumoniae MGH-2, in vitro, read-out: Minimal Inhibitory Concentration MIC), 0.2 µg/mL (≈ 0.47 µM); in test [4] (setting [12]), 0.4 µg/mL (≈ 0.94 µM); in test [5], 1.6 µg/mL (≈ 3.76 µM); in [6], 0.05 µg/mL (≈ 0.118 µM). Moreover, the MIC in test [7] was 0.025 µg/mL (≈ 0.0588 µM); in test [8], 0.1 µg/mL (≈ 0.235 µM); in test [9], 0.1 µg/mL (≈ 0.235 µM); in test [10] it was 0.1 µg/mL (≈ 0.235 µM).
For the compound `NC1(c2ccccc2)CCN(c2c(F)cc3c(=O)c(C(=O)O)cn(C4CC4)c3c2F)C1` (centres unmarked) [Example 1, 7-[(3-Amino-3-phenyl)-1-pyrrolidinyl]-1-cyclopropyl-6,8-difluoro-1,4-dihydro-4-oxo-3-quinolinecarboxylic acid], the MIC is 0.05 µg/mL (≈ 0.118 µM) in [1] (Enterobacter cloacae, MA2646, read-out: Minimal Inhibitory Concentration MIC); 0.05 µg/mL (≈ 0.118 µM) in test [2]; 0.1 µg/mL (≈ 0.235 µM) in test [3] (setting [13]); 0.1 µg/mL (≈ 0.235 µM) in [4] (setting [14]); 0.006 µg/mL (≈ 0.0141 µM) in [6]; 0.006 µg/mL (≈ 0.0141 µM) in test [7]. Moreover, the MIC turned out to be 0.05 µg/mL (≈ 0.118 µM) in test [8], 0.025 µg/mL (≈ 0.0588 µM) in test [9] and 0.05 µg/mL (≈ 0.118 µM) in test [10].
For `NCC1CN(c2c(F)cc3c(=O)c(C(=O)O)cn(C4CC4)c3c2F)CC1c1ccccc1` (centres unmarked) [Example 2], the MIC in [1] (setting [11]) is 0.2 µg/mL (≈ 0.455 µM); in test [3] (setting [13]), 0.1 µg/mL (≈ 0.228 µM); in [4] (setting [12]), 0.4 µg/mL (≈ 0.91 µM); in test [5], 1.6 µg/mL (≈ 3.64 µM); in test [6], 0.013 µg/mL (≈ 0.0296 µM); in test [7] it was 0.006 µg/mL (≈ 0.0137 µM). For the same compound, the MIC in [8] is 0.013 µg/mL (≈ 0.0296 µM); in test [9], 0.006 µg/mL (≈ 0.0137 µM); in test [10] it was 0.013 µg/mL (≈ 0.0296 µM).
On to `O=C(O)c1cn(C2CC2)c2c(F)c(N3CCC(O)(c4ccccc4)C3)c(F)cc2c1=O` (centres unmarked) [Example 4, 1-Cyclopropyl-6,8-difluoro-1,4-dihydro-7-[(3-hydroxy-3-phenyl)1-pyrrolidinyl]-4-oxo-3-quinolinecarboxylic acid], for which the MIC in test [3] (setting [13]) came out at 0.1 µg/mL (≈ 0.235 µM); in [4] (setting [14]), 0.1 µg/mL (≈ 0.235 µM); in [6], 0.003 µg/mL (≈ 0.00704 µM); in test [7], 0.003 µg/mL (≈ 0.00704 µM); in test [8], 0.025 µg/mL (≈ 0.0586 µM); in test [9] it was 0.013 µg/mL (≈ 0.0305 µM). Further, the MIC in test [10] stood at 0.05 µg/mL (≈ 0.117 µM).
